Source: paper PMC5228037, “Discovery and Mechanistic Characterization of Selective Inhibitors of H2S-producing Enzyme: 3-Mercaptopyruvate Sulfurtransferase (3MST) Targeting Active-site Cysteine Persulfide” (Scientific Reports, 2017)

Biological target: T1, persulfurated 3MST (Mus musculus, UniProt Q99J99)
T1 construct: The recombinant full-length wild-type mouse 3MST; made in house; host or cells: E. coli JM109 (DE3)
T1 sequence (Q99J99 1-297): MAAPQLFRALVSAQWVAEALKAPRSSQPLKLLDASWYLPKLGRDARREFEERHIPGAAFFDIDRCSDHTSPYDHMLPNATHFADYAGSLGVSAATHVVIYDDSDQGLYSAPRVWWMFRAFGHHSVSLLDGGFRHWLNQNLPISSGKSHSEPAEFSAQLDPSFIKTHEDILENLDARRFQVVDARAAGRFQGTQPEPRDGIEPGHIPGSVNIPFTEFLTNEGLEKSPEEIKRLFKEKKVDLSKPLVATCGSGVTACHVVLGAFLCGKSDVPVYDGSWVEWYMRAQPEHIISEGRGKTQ
Test: ITC analysis with persulfurated 3MST
Type: binding
Conditions: 25 °C; for ΔH (ITC): persulfurated 3MST; for Kd: persulfurated (3MP-treated) 3MST, pH 9, read-out: Dissociation constant Kd (ITC)
Protocol: The recombinant full-length wild-type mouse 3MST and mutant m3MST (C65S/C255S/C264S) were expressed as an N-terminal His-tagged protein ([…]-3MST) in E. coli JM109 (DE3). The pET44a(+) vector (Novagen) was used as an expression vector. Cells were grown at 37 °C in LB broth (Miller) or 2 × YT broth containing 0.1 g/L ampicillin to OD600 about 0.5, and then protein expression was induced by adding IPTG (final conc. 0.5 mM (LB), 1 mM (2 × YT)). Cells were cultured overnight at 18–20 °C with shaking and harvested at 4 °C by centrifugation at 9,000 rpm for 5 min. Harvested cells were resuspended in lysis buffer containing 0.1 M HEPES-NaOH pH 8, 0.5 M NaCl, 0% or 10% glycerol, 0.5 mM TCEP, 1 mM PMSF, and 1% EtOH, and disrupted by sonication. Cell lysis solutions were centrifuged at 20,000 rpm for 20 min. […] The proteins were further purified on HisTrap HP (GE Healthcare) by increasing the imidazole concentration in buffer containing 0.02 M HEPES pH 8, 0.15 M NaCl, 10% glycerol, and 0.05 mM TCEP until proteins were eluted. Then the His-tag was removed by GST-fusion HRV 3 C protease digestion. The proteins were further purified by anion exchange chromatography on a HiTrap Q HP (GE Healthcare) by increasing the NaCl concentration in buffer containing 0.02 M HEPES pH 8, 10% glycerol, 0.5 mM TCEP until proteins were eluted, and then by gel filtration chromatography on Superdex 75 prep grade using buffer containing 0.02 M HEPES pH 7.5, 0.3 M NaCl, 0.5 mM TCEP. Wild-type 3MST was used in ITC analysis and mutant 3MST was used for crystallization.
Persulfurated 3MST was prepared as follows: 3MST-3MP solution (5 μM 3MST, 25 μM 3MP, 20 μM TCEP, 0.02 M glycine-NaOH pH9, 0.1 M NaCl) was incubated for 2 hr at room temperature. To prevent buffer mismatch and to remove unreacted 3MP and reaction product (pyruvate), the reaction solution was exchanged to ITC measurement solution (0.02 M glycine-NaOH pH 9, 0.1 M NaCl, 5% DMSO) using an Amicon Ultra (10 K) (Millipore) or Vivaspin (10 K) (Sartorius). Non-persulfurated 3MST solution was also prepared by buffer exchange. Both inhibitors were dissolved in the ITC measurement solution. Inhibitor solution (0.5 mM compound 1 or 0.25 mM compound 3) were titrated into a protein solution (0.05 mM 3MST) at 25 °C using a MicroCal iTC200 (GE Healthcare). The first injection of 0.4 μL was followed by 18 injections of 2 μL with 150 s between each injection. Each experiment was repeated three times (n = 3). For data analysis, the first injection peak was removed. Data analyses and curve fitting to a single-site binding model were performed by Origin7 SR4 software (OriginLab).

ΔH (ITC) [kcal/mol]	Kd [nM]	Compound
-11.76	500	Cc1cc(=O)[nH]c(SCC(=O)c2cccc3ccccc23)n1 [compound 3]
-9.37	3000	NC(=O)c1ccsc1NC(=O)CSc1nc2ccccc2c(=O)[nH]1 [compound 1]
